Tests used:
[1] = cited from earlier work
[2] = Dissolution of losartan at different pH (gelation); format: physicochemical
Protocol: However, when the combined formulation of amlodipine and losartan was prepared, undesirable gelation of losartan was observed. […] As such, in the combined formulation of amlodipine and losartan, amlodipine may also be trapped in the losartan gel due to the gelation of losartan, resulting in a decrease in dissolution rate.

## CCCCc1nc(Cl)c(CO)n1Cc1ccc(-c2ccccc2-c2nnn[nH]2)cc1 [losartan, 2-butyl-4-chloro-1-[[2′-(1H-tetrazol-5-yl)[1,1′-biphenyl]-4-yl]methyl]-1H-imidazol-5-methanol]
[1]
  reduction of Cmax of losartan after food ingestion: about 10%
[2]; low pH (e.g., pH 1.2 or 2.0), gelation
  dissolution of losartan (in words): very slowly dissolved
[2]; purified water or relatively high pH (e.g., pH 6.8)
  dissolution of losartan (in words): easily dissolved

Reference: patent publication US10034862B2, “Solid pharmaceutical composition comprising amlodipine and losartan” (HANMI PHARM. CO., LTD., priority 2014, dated 2018)
